In publication PMC9668928, “Zandelisib (ME-401) in Japanese patients with relapsed or refractory indolent non-Hodgkin’s lymphoma: an open-label, multicenter, dose-escalation phase 1 study” (International Journal of Hematology, 2022):

Test system: Japanese patients with R/R iNHL
Assay: Phase 1 dose-escalation study: safety and tolerability (TEAEs, DLTs)
Assay type: in vivo
Source text: Japanese patients aged ≥ 20 years with R/R iNHL histologically confirmed as FL, nodal MZL, extra-nodal MZL of mucosa-associated lymphoid tissue, small lymphocytic lymphoma, lymphoplasmacytic lymphoma, Waldenström’s macroglobulinemia, or equivalent, according to World Health Organization classification, were eligible for this study. Other key eligibility criteria included being PI3K inhibitor therapy-naïve and an Eastern Cooperative Oncology Group performance status of 0 or 1. Further details of inclusion and exclusion criteria are provided in Supplementary Table 1.
This was a multicenter, open-label, dose-escalation, phase 1 study in Japan. All patients received oral zandelisib once daily at the same time each day, at least 1 h before or 2 h after a meal (CS: continuous schedule). Each treatment cycle was 28 days. Definitions of the DLTs described in this study can be found in Supplementary Table 2. The observation period for DLTs was from day 1 of Cycle 1 to day 1 of Cycle 2. Zandelisib was administered until disease progression or unacceptable toxicity. In the event of an AE, patients could be switched to IDT. In the case of disease progression while receiving IDT, patients could be switched back to CS per the investigator’s discretion.
A starting dose of 45 mg was set for investigating patient safety. This study adopted a standard 3 + 3 design. […] If DLTs occurred in 2 or more patients, the study was planned to be suspended pending a safety evaluation. If a DLT occurred in 1 patient, 3 further patients were added to cohort 1. If DLTs occurred in 0/3 or 1/6 patients in cohort 1, dosing in cohort 2 commenced (n = 6; 60 mg/day). If the incidence of DLTs in cohort 2 was ≤ 1/6, the maximum tolerated dose was not determined, and the dose in cohort 2 was to be selected as the recommended Japanese phase 2 dose.
The primary endpoint was the safety [number of patients with treatment-emergent adverse events (TEAEs), based on Common Terminology Criteria for Adverse Events version 5.0] and tolerability (including laboratory values, vital signs, and electrocardiogram performance) of zandelisib in Japanese patients. Hepatobiliary disorder, aspartate/alanine (AST/ALT) increased, diarrhea/colitis, organizing pneumonia, stomatitis, or rash were defined as irAEs in this manuscript. Secondary endpoints included PK (plasma concentrations and PK parameters) and the efficacy of zandelisib. […] The PK parameters for Cycle 1 day 1 and Cycle 2 day 1 were calculated for each patient by non-compartmental analysis. PK parameters included maximum plasma drug concentration (Cmax), area under the plasma concentration–time curve (AUC) from time zero to the last measurable point (AUC0–t), the AUC from time zero to infinity (AUC0-inf), and terminal half-life (t1/2).

Compound: CN1CCC(c2ccccc2CC(C)(C)Nc2nc(N3CCOCC3)nc(-n3c(C(F)F)nc4ccccc43)n2)CC1 [zandelisib]
- TEAE Cytomegalovirus viremia, Grade ≥ 3 (Total, N = 9): 0 n (%)
- TEAE Decreased appetite, All grades (Total, N = 9): 1 (11.1) n (%)
- TEAE Decreased appetite, Grade ≥ 3 (Total, N = 9): 1 (11.1) n (%)
- TEAE Diarrhea, All grades (Total, N = 9): 4 (44.4) n (%)
- TEAE Diarrhea, Grade ≥ 3 (Total, N = 9): 3 (33.3) n (%)
- TEAE Drug hypersensitivity, All grades (Total, N = 9): 1 (11.1) n (%)
- TEAE Drug hypersensitivity, Grade ≥ 3 (Total, N = 9): 0 n (%)
- TEAE Drug-induced liver injury, All grades (Total, N = 9): 1 (11.1) n (%)
- TEAE Drug-induced liver injury, Grade ≥ 3 (Total, N = 9): 1 (11.1) n (%)
- TEAE Dry eye, All grades (Total, N = 9): 1 (11.1) n (%)
- TEAE Dry eye, Grade ≥ 3 (Total, N = 9): 0 n (%)
- TEAE Dry skin, All grades (Total, N = 9): 2 (22.2) n (%)
- TEAE Dry skin, Grade ≥ 3 (Total, N = 9): 0 n (%)
- TEAE Dysgeusia, All grades (Total, N = 9): 1 (11.1) n (%)
- TEAE Dysgeusia, Grade ≥ 3 (Total, N = 9): 0 n (%)
- TEAE Dyspnea, All grades (Total, N = 9): 1 (11.1) n (%)
- TEAE Dyspnea, Grade ≥ 3 (Total, N = 9): 1 (11.1) n (%)
- TEAE Ear and labyrinth disorders (SOC), All grades (Total, N = 9): 1 (11.1) n (%)
- TEAE Ear and labyrinth disorders (SOC), Grade ≥ 3 (Total, N = 9): 0 n (%)
- TEAE Eczema, All grades (Total, N = 9): 1 (11.1) n (%)
- TEAE Eczema, Grade ≥ 3 (Total, N = 9): 0 n (%)
- TEAE Eosinophil count increased, All grades (Total, N = 9): 1 (11.1) n (%)
- TEAE Eosinophil count increased, Grade ≥ 3 (Total, N = 9): 0 n (%)
- TEAE Erythema multiforme, All grades (Total, N = 9): 1 (11.1) n (%)
- TEAE Erythema multiforme, Grade ≥ 3 (Total, N = 9): 0 n (%)
- TEAE Eye disorders (SOC), All grades (Total, N = 9): 2 (22.2) n (%)
- TEAE Eye disorders (SOC), Grade ≥ 3 (Total, N = 9): 0 n (%)
- TEAE Flank pain, All grades (Total, N = 9): 1 (11.1) n (%)
- TEAE Flank pain, Grade ≥ 3 (Total, N = 9): 0 n (%)
- TEAE GGT increased, All grades (Total, N = 9): 1 (11.1) n (%)
- TEAE GGT increased, Grade ≥ 3 (Total, N = 9): 1 (11.1) n (%)
- TEAE Gastrointestinal disorders (SOC), All grades (Total, N = 9): 6 (66.7) n (%)
- TEAE Gastrointestinal disorders (SOC), Grade ≥ 3 (Total, N = 9): 4 (44.4) n (%)
- TEAE General disorders and administration site conditions (SOC), All grades (Total, N = 9): 1 (11.1) n (%)
- TEAE General disorders and administration site conditions (SOC), Grade ≥ 3 (Total, N = 9): 0 n (%)
- TEAE Hepatic function abnormal, All grades (Total, N = 9): 2 (22.2) n (%)
- TEAE Hepatic function abnormal, Grade ≥ 3 (Total, N = 9): 1 (11.1) n (%)
- TEAE Hepatobiliary disorders (SOC), All grades (Total, N = 9): 3 (33.3) n (%)
- TEAE Hepatobiliary disorders (SOC), Grade ≥ 3 (Total, N = 9): 2 (22.2) n (%)
- TEAE Herpes simplex, All grades (Total, N = 9): 1 (11.1) n (%)
- TEAE Herpes simplex, Grade ≥ 3 (Total, N = 9): 0 n (%)
- TEAE Herpes zoster, All grades (Total, N = 9): 1 (11.1) n (%)
- TEAE Herpes zoster, Grade ≥ 3 (Total, N = 9): 0 n (%)
- TEAE Hypoesthesia, All grades (Total, N = 9): 1 (11.1) n (%)
- TEAE Hypoesthesia, Grade ≥ 3 (Total, N = 9): 0 n (%)
- TEAE Hypogammaglobulinemia, All grades (Total, N = 9): 2 (22.2) n (%)
- TEAE Hypogammaglobulinemia, Grade ≥ 3 (Total, N = 9): 0 n (%)
- TEAE Immune system disorders (SOC), All grades (Total, N = 9): 3 (33.3) n (%)
- TEAE Immune system disorders (SOC), Grade ≥ 3 (Total, N = 9): 0 n (%)
- TEAE Infections and infestations (SOC), All grades (Total, N = 9): 6 (66.7) n (%)
- TEAE Infections and infestations (SOC), Grade ≥ 3 (Total, N = 9): 0 n (%)
- TEAE Infusion site extravasation, All grades (Total, N = 9): 1 (11.1) n (%)
- TEAE Infusion site extravasation, Grade ≥ 3 (Total, N = 9): 0 n (%)
- TEAE Insomnia, All grades (Total, N = 9): 1 (11.1) n (%)
- TEAE Insomnia, Grade ≥ 3 (Total, N = 9): 0 n (%)
- TEAE Investigations (SOC), All grades (Total, N = 9): 9 (100.0) n (%)
- TEAE Investigations (SOC), Grade ≥ 3 (Total, N = 9): 6 (66.7) n (%)
- TEAE Joint effusion, All grades (Total, N = 9): 1 (11.1) n (%)
- TEAE Joint effusion, Grade ≥ 3 (Total, N = 9): 0 n (%)
- TEAE Lymphocyte count decreased, All grades (Total, N = 9): 3 (33.3) n (%)
- TEAE Lymphocyte count decreased, Grade ≥ 3 (Total, N = 9): 1 (11.1) n (%)
- TEAE Metabolism and nutrition disorders (SOC), All grades (Total, N = 9): 1 (11.1) n (%)
- TEAE Metabolism and nutrition disorders (SOC), Grade ≥ 3 (Total, N = 9): 1 (11.1) n (%)
- TEAE Muscle spasms, All grades (Total, N = 9): 1 (11.1) n (%)
- TEAE Muscle spasms, Grade ≥ 3 (Total, N = 9): 0 n (%)
- TEAE Musculoskeletal and connective tissue disorders (SOC), All grades (Total, N = 9): 4 (44.4) n (%)
- TEAE Musculoskeletal and connective tissue disorders (SOC), Grade ≥ 3 (Total, N = 9): 0 n (%)
- TEAE Nasopharyngitis, All grades (Total, N = 9): 5 (55.6) n (%)
- TEAE Nasopharyngitis, Grade ≥ 3 (Total, N = 9): 0 n (%)
- TEAE Nausea, All grades (Total, N = 9): 3 (33.3) n (%)
- TEAE Nausea, Grade ≥ 3 (Total, N = 9): 0 n (%)
- TEAE Nervous system disorders (SOC), All grades (Total, N = 9): 1 (11.1) n (%)
- TEAE Nervous system disorders (SOC), Grade ≥ 3 (Total, N = 9): 0 n (%)
- TEAE Neutrophil count decreased, All grades (Total, N = 9): 8 (88.9) n (%)
- TEAE Neutrophil count decreased, Grade ≥ 3 (Total, N = 9): 5 (55.6) n (%)
- TEAE Oral herpes, All grades (Total, N = 9): 1 (11.1) n (%)
- TEAE Oral herpes, Grade ≥ 3 (Total, N = 9): 0 n (%)
- TEAE Organizing pneumonia, All grades (Total, N = 9): 1 (11.1) n (%)
- TEAE Organizing pneumonia, Grade ≥ 3 (Total, N = 9): 1 (11.1) n (%)
- TEAE Oropharyngeal pain, All grades (Total, N = 9): 2 (22.2) n (%)
- TEAE Oropharyngeal pain, Grade ≥ 3 (Total, N = 9): 0 n (%)
- TEAE Pancreatitis, All grades (Total, N = 9): 1 (11.1) n (%)
- TEAE Pancreatitis, Grade ≥ 3 (Total, N = 9): 1 (11.1) n (%)
- TEAE Pharyngeal paresthesia, All grades (Total, N = 9): 1 (11.1) n (%)
- TEAE Pharyngeal paresthesia, Grade ≥ 3 (Total, N = 9): 0 n (%)
- TEAE Pruritus, All grades (Total, N = 9): 1 (11.1) n (%)
- TEAE Pruritus, Grade ≥ 3 (Total, N = 9): 0 n (%)
- TEAE Psychiatric disorders (SOC), All grades (Total, N = 9): 1 (11.1) n (%)
- TEAE Psychiatric disorders (SOC), Grade ≥ 3 (Total, N = 9): 0 n (%)
- TEAE Rash maculopapular, All grades (Total, N = 9): 5 (55.6) n (%)
- TEAE Rash maculopapular, Grade ≥ 3 (Total, N = 9): 1 (11.1) n (%)
- TEAE Rash, All grades (Total, N = 9): 4 (44.4) n (%)
- TEAE Rash, Grade ≥ 3 (Total, N = 9): 0 n (%)
- TEAE Renal and urinary disorders (SOC), All grades (Total, N = 9): 1 (11.1) n (%)
- TEAE Renal and urinary disorders (SOC), Grade ≥ 3 (Total, N = 9): 0 n (%)
- TEAE Renal impairment, All grades (Total, N = 9): 1 (11.1) n (%)
- TEAE Renal impairment, Grade ≥ 3 (Total, N = 9): 0 n (%)
- TEAE Respiratory, thoracic, and mediastinal disorders (SOC), All grades (Total, N = 9): 4 (44.4) n (%)
- TEAE Respiratory, thoracic, and mediastinal disorders (SOC), Grade ≥ 3 (Total, N = 9): 1 (11.1) n (%)
- TEAE Skin and subcutaneous tissue disorders (SOC), All grades (Total, N = 9): 9 (100.0) n (%)
- TEAE Skin and subcutaneous tissue disorders (SOC), Grade ≥ 3 (Total, N = 9): 1 (11.1) n (%)
- TEAE Stomatitis, All grades (Total, N = 9): 2 (22.2) n (%)
- TEAE Stomatitis, Grade ≥ 3 (Total, N = 9): 1 (11.1) n (%)
- TEAE Subcutaneous abscess, All grades (Total, N = 9): 1 (11.1) n (%)
- TEAE Subcutaneous abscess, Grade ≥ 3 (Total, N = 9): 0 n (%)
- TEAE Tinnitus, All grades (Total, N = 9): 1 (11.1) n (%)
- TEAE Tinnitus, Grade ≥ 3 (Total, N = 9): 0 n (%)
- TEAE Urticaria, All grades (Total, N = 9): 1 (11.1) n (%)
- TEAE Urticaria, Grade ≥ 3 (Total, N = 9): 0 n (%)
- TEAE Vomiting, All grades (Total, N = 9): 2 (22.2) n (%)
- TEAE Vomiting, Grade ≥ 3 (Total, N = 9): 0 n (%)
- TEAE WBC count decreased, All grades (Total, N = 9): 4 (44.4) n (%)
- TEAE WBC count decreased, Grade ≥ 3 (Total, N = 9): 0 n (%)
- discontinued treatment due to TEAEs (cohort 1, 45 mg/day): 2 patients
- discontinued treatment due to TEAEs (cohort 2, 60 mg/day): 2 patients
- discontinuation due to irAEs (during IDT): no discontinuation due to irAEs occurred during IDT
- recurrence of Grade ≥ 3 irAEs and any grade irAEs leading to drug interruption (during IDT): 4/8
